Measurements from patent US20090118470A1 (priority 2005, published 2009).
Read-outs that look alike come from different tables or passages of the source.

What was measured:
prions [1] = settings: cited from earlier work; for effect on prions: alcohols alone
[2] = system: 263K strain of scrapie agent; type: in vivo, Syrian gold hamsters; settings: for inactivation factor: at 80° C.; for Mean incubation period ± SE: diseased animals only; for No. infected/No. injected: intracerebral inoculation
prions [3] = settings: cited from earlier work

For `CCCO` [1-propanol], which effect on prions (prions [1]) is on record?
Its effect on prions is “do not have an effect on prions”.

For `CC(C)O` [2-propanol], which effect on prions (prions [1]) is on record?
The effect on prions was “do not have an effect on prions”.

With `O` [100% water, water] as the molecule, how does the inactivation factor [2] read?
Its inactivation factor is “about 10”.

And the “Infectivity titre ± SE” value ([2]; heat treatment 80° C./20 min.)?
The value was 7.2 ± 0.7 log ID50 per sample.

And the “Mean incubation period ± SE” value ([2]; heat treatment 80° C./20 min.)?
The value was 78 ± 4 days.

And the “No. infected/No. injected” value ([2]; heat treatment 80° C./20 min.)?
Its value is 5/5.

What about the “Infectivity titre ± SE” value ([2]; heat treatment 90° C./20 min.) of the same molecule?
The value was 6.2 ± 0.2 log ID50 per sample.

And the “Mean incubation period ± SE” value ([2]; heat treatment 90° C./20 min.)?
The value was 85 ± 1 days.

And the “No. infected/No. injected” value ([2]; heat treatment 90° C./20 min.)?
The value was 5/5.

And the “Infectivity titre ± SE” value ([2]; heat treatment 100° C./20 min.)?
The value was 5.0 ± 0.1 log ID50 per sample.

What about the “Mean incubation period ± SE” value ([2]; heat treatment 100° C./20 min.) of the same molecule?
Its value is 97 ± 1 days.

And the “No. infected/No. injected” value ([2]; heat treatment 100° C./20 min.)?
The value was 5/5.

Which “residual infectivity after treatment” value (prions [1]; heated in SDS solution (3% or greater; 0.10 M) for at least ten minutes, without autoclaving) does the source give for `CCCCCCCCCCCCOS(=O)(=O)[O-].[Na+]` [SDS, Sodium dodecylsulfate] here?
The value was “Some residual infectivity remains”.

For `CCO` [ethanol], which effect on prions (prions [1]) is on record?
Its effect on prions is “do not have an effect on prions”.

With `OCC(O)CO` [glycerol] as the molecule, how does the inactivation factor [2] read?
Its inactivation factor is < 10.

Which “conversion of prions into an irregular coiled structure” value (prions [3]; 6 N guanidinium hydrochloride (573 g/l)) does the source give for `Cl.N=C(N)N` [guanidinium hydrochloride] here?
The value was “complete conversion”.

With `NC(N)=O` [urea] as the molecule, how does the “conversion of prions into an irregular coiled structure” value (prions [3]; 8 N urea (480 g/l)) read?
Its value is “complete conversion”.

With guanidinium isothiocyanate as the molecule, how does the prion inactivation (prions [1]; concentration of 3 M, immersion times longer than 1 hour) read?
The prion inactivation was “inactivates prions”.

And the “illness of experimental animals after intracerebral inoculation” value (prions [1]; concentration of 4 M, at least 15 minutes residence time)?
The value was “no experimental animal in various experiments is reported to become ill”.

And the denaturing effect (prions [3]; 1.5 N solution (177 g/l))?
The denaturing effect was “partially denaturing effect”.
